A short description of series [1]: Hydrophobic chromatography (analytical HPLC, chromolite RP-18e) as estimate of overall lipophilicity. Conditions: chromolite R.P-18e column, mixture of 40 μg each, FIG. 3. As for the experimental part: Analytical reverse phase-HPLC was performed using a pre-packed Chromolith™ Performance RP-18e column (4.6×100 mm, Merck, Darmstadt, Germany). The column was eluted with a binary gradient of 10-100% solution B over 10 min with a flow rate of 3 ml/min (solution A was 0.1% trifluoroacetic acid in H2O and solution B was 0.1% trifluoroacetic acid in acetonitrile:H2O; 3:1, v/v).
This approach of hydrophobic chromatography yields an estimate of the overall lipophilicity of peptide analogs (Shechter et al., 2010).

For series [2] the following is noted: said to have; cited from earlier work.
For series [3], the system named is CD1-mice. The experiment in a line: Blood glucose levels in CD1 mice after a single administration. Format: in vivo. Here is the method: (§1) Each point is the arithmetic mean of n=6 mice±SE.
as §1
Blood glucose levels were determined at varying time points following administration of insulin, exendin-4, and their derivatives in blood aliquots taken from the tail vein. Glucose analyzer (Beckman Instruments Fullerton, Calif.) was used. Groups consisted of six mice each. Data are presented as means±SE.

The conditions of series [4]: background statement; cited from earlier work.
Where [5] appears, read: single subcutaneous 0.25 nmole/mouse, CD1 mice.

This is an account of results in patent publication US9480751B2, “Albumin binding probes and drug conjugates thereof” (priority 2011, dated 2016).

For “N^εB29-tetradecanoyl des(B30) insulin [insulin-detemir]”, in series [1], the “Rt value, hydrophobic chromatography (estimate of overall lipophilicity)” value was 9.107 min. Moreover, the Duration of action entry in series [2] was “up to 24 hours”.
For exendin-4-CO—(CH2)15—SO3^−, the “Blood glucose level 48 hrs after administration (last time point)” value in series [3] (intravenous 0.25 nmole/mouse) is reported as “still low”. For the same substance, the “t1/2 value of glucose-lowering” value in series [3] (single intravenous 0.25 nmole/mouse, CD1 mice) is 28 ± 2 h. In series [3] (setting [5]), the “Glucose level reached after administration” value is 70 ± 5 mg/dL, the “Period over which glucose remained at low level” value was approximately 24 h and the “t1/2 value of glucose-lowering” value is 32 ± 2 h. For the same substance, the “Glucose level reached after administration” value in series [3] (single subcutaneous 0.25 nmole/mouse, CD1 mice, listed as HO3S—(CH2)15—CO-exendin-4) is 70+5 mg/dl. The “t1/2 of glucose reduction” value in series [3] (subcutaneous and intravenous administration, stated together) was 28 to 32 h.
With insulin: Human (Zn^2+-free) insulin, the “Rt value, hydrophobic chromatography (estimate of overall lipophilicity)” value in series [1] was 7.312 min. Further, in series [3] (single subcutaneous 0.69 nmole/mouse, CD1 mice), the “t1/2 of glucose-lowering effect” value is 2 ± 0.2 h. The t1/2 in plasma in series [4] was 5 to 6 min.
